For 27 compounds, IC50 results are on record in patent publication EP2030621A1, “Novel substituted pyrimidines as cysteine protease inhibitors” (GLAXO GROUP LIMITED, priority 2007, dated 2009).

This assay relates to Plasmodium falciparum parasite. Nature of the assay: Whole cell assay: whole cell activity against the parasite. It counts as cell-based. From the text:
Compounds can be evaluated for whole cell actvity against the Plasmadium falciparum parasite according to the procedure described in Sijwali S. and Rosenthal P. J., (2004) Proceedings of the National Academy of Sciences of the United States of America (PNAS) 101(13), 4384-4389 (see in particular "Measurement of Parasite Growth rates and Inhibitor Sensitivity" on page 4385); IC50 values can be calculated as described in Singh A. and Rosenthal P. J., (2001) Antimicrobial Agents and Chemotherapy 45(3), 949-951 (see in particular page 950, first column); synchronised parasites can be prepared as described in Divo A. A. et al., (1985) Protozool. 32, 59-64. 3) In vitro models to evaluate activity against bone metastasis

pIC50: −log10 of the molar value. Structures can show the parent of a compound that is named as a salt. Where two headings read alike, the source gives them in different places.

As a reminder, the pIC50 is the IC50 on a negative log10 scale, so that one unit is a factor of ten. Lower therefore signals a large IC50. For `CC1CCC(N(NC(=O)c2ccc(CN3CCN(CC4CCN(C)CC4)CC3)cc2)c2nc(C#N)ncc2Br)C1` (mixture of isomers) [Example 5, N'-(5-bromo-2-cyano-4-pyrimidinyl)-N'-(3-methylcyclopentyl)-4-({4-[(1-methyl-4-piperidinyl)methyl]-1-piperazinyl}methyl)benzohydrazide trifluoroacetate], the pIC50 (Plasmodium falciparum) was 7.82 to 8.60.

`CC1CCC(N(NC(=O)c2ccc(CN3CCN(C)CC3)cc2)c2nc(C#N)ncc2Br)C1` (mixture of isomers) [Example 26, N'-(5-bromo-2-cyano-4-pyrimidinyl)-N'-(3-methylcyclopentyl)-4-[(4-methyl-1-piperazinyl)methyl]benzohydrazide trifluoroacetate] had a pIC50 (Plasmodium falciparum) of 6.82 to 7.82.

As for `C[C@H]1CCC[C@H]1N(NC(=O)c1ccc(CN2CCN(C)CC2)cc1)c1nc(C#N)ncc1Br` (racemic) [Example 2, N'-(5-bromo-2-cyano-4-pyrimidinyl)-N'-[(1R,2S+1S,2R)-2-methylcyclopentyl]-4-[(4-methyl-1-piperazinyl)methyl]benzohydrazide trifluoroacetate], the pIC50 (Plasmodium falciparum) was 6.82 to 7.82.

In turn, `C[C@@H]1CCC[C@H]1N(NC(=O)c1ccc(CN2CCN(C)CC2)cc1)c1nc(C#N)ncc1Br` (racemic) [Example 3, N'-(5-bromo-2-cyano-4-pyrimidinyl)-N'-[(1R,2R+1S,2S)-2-methylcyclopentyl]-4-[(4-methyl-1-piperazinyl)methyl]benzohydrazide trifluoroacetate] showed a negative-log IC50 (pIC50) (Plasmodium falciparum) of 7.82 to 8.60.

Regarding `C[C@@H]1CCC[C@H]1N(NC(=O)c1ccc(F)cc1)c1nc(C#N)ncc1Br` (racemic) [Example 43, N'-(5-bromo-2-cyano-4-pyrimidinyl)-4-fluoro-N'-[(1R,2R+1S,2S))-2-methylcyclopentyl]benzohydrazide trifluoroacetate], the pIC50 (Plasmodium falciparum) is 6.82 to 7.82.

`CC1CCC(N(NC(=O)c2ccc(CN3CCC(N4CCN(C)CC4)CC3)cc2)c2nc(C#N)ncc2Br)C1` (stereo not drawn) [Example 4, N'-(5-bromo-2-cyano-4-pyrimidinyl)-N'-(3-methylcyclopentyl)-4-{[4-(4-methyl-1-piperazinyl)-1-piperidinyl]methyl}benzohydrazide trifluoroacetate] showed a negative-log IC50 (pIC50) (Plasmodium falciparum) of more than 9.00.

For the setting “Plasmodium falciparum”, `N#Cc1ncc(Br)c(N(NC(=O)c2ccc(CN3CCC(N4CCOCC4)CC3)cc2)C2CCCC2)n1` [Example 6, N'-(5-bromo-2-cyano-4-pyrimidinyl)-N'-cyclopentyl-4-{[4-(4-morpholinyl)-1-piperidinyl]methyl}benzohydrazide trifluoroacetate] gave a pIC50 of 6.82 to 7.82.

As to `CN1CCC(CN2CCN(Cc3ccc(C(=O)NN(c4nc(C#N)ncc4Br)C4CCCC4)cc3)CC2)CC1` [Example 7, N'-(5-bromo-2-cyano-4-pyrimidinyl)-N'-cyclopentyl-4-({4-[(1-methyl-4-piperidinyl)methyl]-1-piperazinyl}methyl)benzohydrazide trifluoroacetate], the negative logarithm of the IC50 (pIC50) was 8.60 to 9.00.

Under “Plasmodium falciparum”, `CN1CCCC(CN2CCN(Cc3ccc(C(=O)NN(c4nc(C#N)ncc4Br)C4CCCC4)cc3)CC2)C1` (stereo not drawn) [Example 8, N'-(5-bromo-2-cyano-4-pyrimidinyl)-N'-cyclopentyl-4-({4-[(1-methyl-3-piperidinyl)methyl]-1-piperazinyl}methyl)benzohydrazide trifluoroacetate] gave a pIC50 of 7.82 to 8.60.

Take `CN1CCN(C(=O)C2CCN(Cc3ccc(C(=O)NN(c4nc(C#N)ncc4Br)C4CCCC4)cc3)CC2)CC1` [Example 9, N'-(5-bromo-2-cyano-4-pyrimidinyl)-N'-cyclopentyl-4-({4-[(4-methyl-1-piperazinyl)carbonyl]-1-piperidinyl}methyl)benzohydrazide trifluoroacetate]: the pIC50 (Plasmodium falciparum) is 7.82 to 8.60.

In turn, `CN1CCN(C2CCN(Cc3ccc(C(=O)NN(c4nc(C#N)ncc4Br)C4CCCC4)cc3)CC2)CC1` [Example 10, N'-(5-bromo-2-cyano-4-pyrimidinyl)-N'-cyclopentyl-4-{[4-(4-methyl-1-piperazinyl)-piperidinyl]methyl}benzohydrazide trifluoroacetate] showed a negative logarithm of the IC50 (pIC50) (Plasmodium falciparum) of 7.82 to 8.60.

Compound `CN1CCN(C2CCN(Cc3cccc(C(=O)NN(c4nc(C#N)ncc4Br)C4CCCC4)c3)CC2)CC1` [Example 11, N'-(5-bromo-2-cyano-4-pyrimidinyl)-N'-cyclopentyl-3-{[4-(4-methyl-1-piperazinyl)-1-piperidinyl]methyl}benzohydrazide trifluoroacetate] gave a pIC50 (Plasmodium falciparum) of 7.82 to 8.60.

`CN1CCN(C(=O)C2CCN(Cc3cccc(C(=O)NN(c4nc(C#N)ncc4Br)C4CCCC4)c3)CC2)CC1` [Example 12, N'-(5-bromo-2-cyano-4-pyrimidinyl)-N'-cyclopentyl-3-({4-[(4-methyl-1-piperazinyl)carbonyl]-1-piperidinyl}methyl)benzohydrazide trifluoroacetate] gave a pIC50 (Plasmodium falciparum) of 7.82 to 8.60.

`N#Cc1ncc(Br)c(N(NC(=O)c2cccc(CN3CCC(N4CCOCC4)CC3)c2)C2CCCC2)n1` [Example 13, N'-(5-bromo-2-cyano-4-pyrimidinyl)-N'-cyclopentyl-3-{[4-(4-morpholinyl)-1-piperidinyl]methyl}benzohydrazide trifluoroacetate]: under “Plasmodium falciparum”, the pIC50 is 6.82 to 7.82.

In the case of `CN1CCCC(CN2CCN(Cc3cccc(C(=O)NN(c4nc(C#N)ncc4Br)C4CCCC4)c3)CC2)C1` (stereo not drawn) [Example 14, N'-(5-bromo-2-cyano-4-pyrimidinyl)-N'-cyclopentyl-3-({4-[(1-methyl-3-piperidinyl)methyl]-1-piperazinyl}methyl)benzohydrazide trifluoroacetate], the pIC50 (Plasmodium falciparum) is 7.82 to 8.60.

On to `CN1CCN(Cc2ccc(C(=O)NN(c3nc(C#N)ncc3Br)C3CCCCC3)cc2)CC1` [Example 16, N'-(5-bromo-2-cyano-4-pyrimidinyl)-N'-cyclohexyl-4-[(4-methyl-1-piperazinyl)methyl]benzohydrazide trifluoroacetate], for which, for the setting “Plasmodium falciparum”, the pIC50 was 7.82 to 8.60.

Turning to `CN1CCN(C2CCN(Cc3ccc(C(=O)NN(c4nc(C#N)ncc4Br)C4CCCCC4)cc3)CC2)CC1` [Example 17, N'-(5-bromo-2-cyano-4-pyrimidinyl)-N'-cyclohexyl-4-{[4-(4-methyl-1-piperazinyl)-1-piperidinyl]methyl}benzohydrazide trifluoroacetate], the pIC50 (Plasmodium falciparum) was 7.82 to 8.60.

On to `N#Cc1ncc(Br)c(N(NC(=O)c2ccc(CN3CCC(N4CCOCC4)CC3)cc2)C2CCCCC2)n1` [Example 18, N'-(5-bromo-2-cyano-4-pyrimidinyl)-N'-cyclohexyl-4-{[4-(4-morpholinyl)-1-piperidinyl]methyl}benzohydrazide trifluoroacetate], for which the pIC50 (Plasmodium falciparum) was 6.82 to 7.82.

For `CN1CCC(CN2CCN(Cc3ccc(C(=O)NN(c4nc(C#N)ncc4Br)C4CCCCC4)cc3)CC2)CC1` [Example 19, N'-(5-bromo-2-cyano-4-pyrimidinyl)-N'-cyclohexyl-4-({4-[(1-methyl-4-piperidinyl)methyl]-1-piperazinyl}methyl)benzohydrazide trifluoroacetate], for the setting “Plasmodium falciparum”, the pIC50 was 7.82 to 8.60.

As for `CN1CCN(C2CCN(Cc3cccc(C(=O)NN(c4nc(C#N)ncc4Br)C4CCCCC4)c3)CC2)CC1` [Example 20, N'-(5-bromo-2-cyano-4-pyrimidinyl)-N'-cyclohexyl-3-{[4-(4-methyl-1-piperazinyl)-1-piperidinyl]methyl}benzohydrazide trifluoroacetate], where the note is “Plasmodium falciparum”, the negative-log IC50 (pIC50) was 7.82 to 8.60.

For the compound `N#Cc1ncc(Br)c(N(NC(=O)c2ccc(CN3CCC(O)CC3)cc2)C2CCCCC2)n1` [Example 21, N'-(5-bromo-2-cyano-4-pyrimidinyl)-N'-cyclohexyl-4-[(4-hydroxy-1-piperidinyl)methyl]benzohydrazide trifluoroacetate], the pIC50 (Plasmodium falciparum) is 6.82 to 7.82.

`CN1CCN(C(=O)C2CCN(Cc3ccc(C(=O)NN(c4nc(C#N)ncc4Br)C4CCCCC4)cc3)CC2)CC1` [Example 22, N'-(5-bromo-2-cyano-4-pyrimidinyl)-N'-cyclohexyl-4-({4-[(4-methyl-1-piperazinyl)carbonyl]-1-piperidinyl}methyl)benzohydrazide trifluoroacetate] showed a pIC50 (Plasmodium falciparum) of 7.82 to 8.60.

For the compound `CN1CCN(C(=O)C2CCN(Cc3cccc(C(=O)NN(c4nc(C#N)ncc4Br)C4CCCCC4)c3)CC2)CC1` [Example 23, N'-(5-bromo-2-cyano-4-pyrimidinyl)-N'-cyclohexyl-3-[{4-[(4-methyl-1-piperazinyl)carbonyl]-1-piperidinyl}methyl)benzohydrazide trifluoroacetate], under “Plasmodium falciparum”, the negative-log IC50 (pIC50) is 7.82 to 8.60.

On to `N#Cc1ncc(Br)c(N(NC(=O)c2cccc(CN3CCC(N4CCOCC4)CC3)c2)C2CCCCC2)n1` [Example 24, N'-(5-bromo-2-cyano-4-pyrimidinyl)-N'-cyclohexyl-3-{[4-(4-morpholinyl)-1-piperidinyl]methyl}benzohydrazide trifluoroacetate], for which the negative-log IC50 (pIC50) (Plasmodium falciparum) was 7.82 to 8.60.

The compound `CN1CCCC(CN2CCN(Cc3ccc(C(=O)NN(c4nc(C#N)ncc4Br)C4CCCCC4)cc3)CC2)C1` (stereo not drawn) [Example 25, N'-(5-bromo-2-cyano-4-pyrimidinyl)-N'-cyclohexyl-4-({4-[(1-methyl-3-piperidinyl)methyl]-1-piperazinyl}methyl)benzohydrazide trifluoroacetate] had a negative-log IC50 (pIC50) (Plasmodium falciparum) of 7.82 to 8.60.

Turning to `CN1CCCC(CN2CCN(Cc3cccc(C(=O)NN(c4nc(C#N)ncc4Br)C4CCCCC4)c3)CC2)C1` (stereo not drawn) [Example 27, N'-(5-bromo-2-cyano-4-pyrimidinyl)-N'-cyclohexyl-3-({4-[(1-methyl-3-piperidinyl)methyl]-1-piperazinyl}methyl)benzohydrazide trifluoroacetate], for the setting “Plasmodium falciparum”, the pIC50 is 7.82 to 8.60.

Where the note is “Plasmodium falciparum”, `CN1CCC(CN2CCN(Cc3cccc(C(=O)NN(c4nc(C#N)ncc4Br)C4CCCCC4)c3)CC2)CC1` [Example 28, N'-(5-bromo-2-cyano-4-pyrimidinyl)-N'-cyclohexyl-3-({4-[(1-methyl-4-piperidinyl)methyl]-1-piperazinyl}methyl)benzohydrazide trifluoroacetate] had a pIC50 of 7.82 to 8.60.
